Assay results reported in US20220144823A1, “PYRAZOLOPYRIDINE DERIVATIVES AS INHIBITORS OF PASK” (Galapagos NV, priority 2019, published 2022).

Key:
[1] = biological target: T1, autophosphorylation of PASK at position Thr307 in Hek293 cells overexpressing PASK (Homo sapiens, UniProt Q96RG2); assay: PASK autophosphorylation ELISA assay; format: cell-based; details: 24 h, ELISA readout
T1 construct: expressed in transfected cells; host or cells: Hek293
Description: The compounds of the invention are profiled in a cellular assay to determine their capacity to reduce the autophosphorylation levels of PASK at position Thr307 in Hek293 cells overexpressing PASK, using an ELISA-based readout.
At day 1, a 96-well cell assay plate is coated with poly-D-lysine (50 μL/well of a 0.05 mg/mL solution in PBS) and incubated for 1 h at 37° C. The plate is subsequently washed once with PBS and stored dry at RT until further use. Hek293 cells are transfected with a pcDNA3.1-PASK(FL,WT)-FLAG construct (SEQ ID1) and seeded in culture medium (DMEM+10% FBS) in a poly-D-lysine coated 96-well plate (0.3 μL JetPEI DNA transfection reagent (Polyplus-transfection SA, Cat #101-40), 10 ng construct and 90 ng pBluescript, 60000 cells per well). […] The cell plate is incubated overnight at 37° C., 5% CO2.
At day 2, the medium of the assay plate is removed and 100 μL of fresh medium (DMEM+10% FBS) is added to the plate. Cell plate is further incubated overnight at 37° C., 5% CO2. This to allow further expression of PASK protein.
At day 3, the medium is removed and replaced with 100 μL of serum free medium (DMEM). Test compound is added to the plate (8 points concentration curve with 1/3 dilution steps starting from 30 μM final concentration in 0.3% DMSO final). In the positive and negative control wells of the plate, 0.3% DMSO final is added. For each tested condition, duplicates are made for ELISA readout. Cell plate is incubated 24 h at 37° C., 5% CO2.
At day 4, the medium is removed and the plate is washed once with 100 μL/well PBS. Cells are lysed by adding 50 μL/well western blot lysis buffer (20 mM Tris pH 7.5, 150 mM NaCl and 1% Triton) to the plate. The assay plate is stored at −80° C. and thawed to perform the ELISA readout.
At day 1, the ELISA plate is coated with the mouse anti-FLAG antibody (2 μg/mL diluted in PBS, 100 μL/well) and incubated overnight at 4° C.
At day 2, the plate is washed once with 150 μL/well PBS. 200 μL/well blocking buffer (PBS with 3% BSA) is added and the plate is incubated for 4 h at RT. The plate is washed with 150 μL/well high salt washing buffer (20 mM Na2HPO4, 0.5% Triton X-100, 0.1% SDS, 0.1% BSA and 1 M NaCl) followed by one wash with 150 μL/well low salt washing buffer (20 mM Na2HPO4, 0.5% Triton X-100, 0.1% SDS, 0.1% BSA and 150 mM NaCl). Meanwhile, the cell lysate plate is thawed, two wells of the same condition are pooled (2×50 μL) and added to the ELISA plate. The ELISA plate is incubated overnight at 4° C.
At day 3, the ELISA plate is washed twice with 150 μL/well high salt washing buffer followed by two washes with low salt washing buffer. 100 μL/well detection antibody for pPASK (phospho-Akt substrate (RXXS*/T*) (110B7E) rabbit antibody (Cell Signaling Technology, Inc., Cat #9614) 2 μg/mL diluted in PBS with 3% BSA and 1×Halt™ protease and phosphatase inhibitor cocktail (Thermo Fisher Scientific, Inc., Cat #78447)) is added and incubated for 2 h at RT. The plate is washed twice with high and low salt wash buffer (150 μL/well) and 100 μL/well of an HRP antibody (swine anti-rabbit HRP antibody (Agilent Technologies, Inc., Cat #P039901) diluted 1/2000 in PBS with 3% BSA and 1×Halt™ protease and phosphatase inhibitor cocktail) is added to the plate, followed by an incubation for 1 h at RT in the dark (plate sealed with aluminum seal). The plate is washed twice with high and low salt wash buffer (150 μL/well) and 100 μL/well of SuperSignal™ ELISA Pico Chemiluminescent Substrate (Thermo Fisher Scientific, Inc., Cat #37070)(premix part 1 and part 2, 1/1) is added. The plate is incubated for 4 min at RT before measuring luminescence on the Luminoskan™ Ascent (Thermo Fisher Scientific, Inc.) (PMT default voltage; 100 ms integration time). […]

human PASK = biological target: T2, human PASK (Homo sapiens, UniProt Q96RG2); assay: ADP-Glo kinase assay; format: biochemical; details: ADPGlo PASK kinase assay, 25 μM ATP, ZIPtide 25 μM
T2 construct: purchased ThermoFisher Scientific PR7013A
How it was run: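 Human recombinant PASK phosphorylating ZIPtide peptide with ATP, 120 min at RT; compounds in 10-point 1/5 dilution series, 1% DMSO final. ADP formed measured by ADP-Glo luminescence after ATP depletion; percent inhibition fitted to dose-response curves for averaged IC50.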

T2 sequence (Q96RG2 whole entry): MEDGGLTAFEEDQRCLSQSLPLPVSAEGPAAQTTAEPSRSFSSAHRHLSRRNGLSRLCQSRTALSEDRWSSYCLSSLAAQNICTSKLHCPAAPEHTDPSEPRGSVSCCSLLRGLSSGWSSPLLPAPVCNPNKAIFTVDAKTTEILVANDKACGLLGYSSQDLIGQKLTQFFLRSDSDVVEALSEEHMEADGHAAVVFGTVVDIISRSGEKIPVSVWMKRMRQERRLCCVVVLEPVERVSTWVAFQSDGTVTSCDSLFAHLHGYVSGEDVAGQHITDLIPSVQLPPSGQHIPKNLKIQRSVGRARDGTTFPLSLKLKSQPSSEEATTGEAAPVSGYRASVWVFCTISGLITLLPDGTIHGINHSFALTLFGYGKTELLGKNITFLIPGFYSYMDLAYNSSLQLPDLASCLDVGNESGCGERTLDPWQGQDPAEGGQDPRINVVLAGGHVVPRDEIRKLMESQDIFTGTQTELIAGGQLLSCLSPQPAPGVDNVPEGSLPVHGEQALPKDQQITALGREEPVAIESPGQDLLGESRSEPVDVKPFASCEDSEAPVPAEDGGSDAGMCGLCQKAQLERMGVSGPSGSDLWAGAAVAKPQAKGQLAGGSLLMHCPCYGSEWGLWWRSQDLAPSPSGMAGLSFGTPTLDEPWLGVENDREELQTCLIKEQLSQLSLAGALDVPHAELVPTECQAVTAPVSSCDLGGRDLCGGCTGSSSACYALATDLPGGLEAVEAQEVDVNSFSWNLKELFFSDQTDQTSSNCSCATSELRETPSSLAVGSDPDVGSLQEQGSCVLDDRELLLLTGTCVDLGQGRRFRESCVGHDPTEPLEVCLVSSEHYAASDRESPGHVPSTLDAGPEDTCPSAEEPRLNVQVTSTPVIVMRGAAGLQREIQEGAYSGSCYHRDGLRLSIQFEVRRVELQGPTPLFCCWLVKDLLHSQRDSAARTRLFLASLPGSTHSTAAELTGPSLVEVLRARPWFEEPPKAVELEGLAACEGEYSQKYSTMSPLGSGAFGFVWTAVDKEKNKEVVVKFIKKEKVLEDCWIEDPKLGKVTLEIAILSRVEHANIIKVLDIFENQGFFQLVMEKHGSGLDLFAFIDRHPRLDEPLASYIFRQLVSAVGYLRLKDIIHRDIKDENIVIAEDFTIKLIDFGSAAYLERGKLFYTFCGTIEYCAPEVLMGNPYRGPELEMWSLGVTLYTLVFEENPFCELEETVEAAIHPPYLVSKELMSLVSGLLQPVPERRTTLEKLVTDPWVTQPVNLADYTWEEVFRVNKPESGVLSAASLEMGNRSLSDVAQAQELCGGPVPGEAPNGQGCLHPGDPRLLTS
T1 sequence (Q96RG2 with tags, fused parts or gaps): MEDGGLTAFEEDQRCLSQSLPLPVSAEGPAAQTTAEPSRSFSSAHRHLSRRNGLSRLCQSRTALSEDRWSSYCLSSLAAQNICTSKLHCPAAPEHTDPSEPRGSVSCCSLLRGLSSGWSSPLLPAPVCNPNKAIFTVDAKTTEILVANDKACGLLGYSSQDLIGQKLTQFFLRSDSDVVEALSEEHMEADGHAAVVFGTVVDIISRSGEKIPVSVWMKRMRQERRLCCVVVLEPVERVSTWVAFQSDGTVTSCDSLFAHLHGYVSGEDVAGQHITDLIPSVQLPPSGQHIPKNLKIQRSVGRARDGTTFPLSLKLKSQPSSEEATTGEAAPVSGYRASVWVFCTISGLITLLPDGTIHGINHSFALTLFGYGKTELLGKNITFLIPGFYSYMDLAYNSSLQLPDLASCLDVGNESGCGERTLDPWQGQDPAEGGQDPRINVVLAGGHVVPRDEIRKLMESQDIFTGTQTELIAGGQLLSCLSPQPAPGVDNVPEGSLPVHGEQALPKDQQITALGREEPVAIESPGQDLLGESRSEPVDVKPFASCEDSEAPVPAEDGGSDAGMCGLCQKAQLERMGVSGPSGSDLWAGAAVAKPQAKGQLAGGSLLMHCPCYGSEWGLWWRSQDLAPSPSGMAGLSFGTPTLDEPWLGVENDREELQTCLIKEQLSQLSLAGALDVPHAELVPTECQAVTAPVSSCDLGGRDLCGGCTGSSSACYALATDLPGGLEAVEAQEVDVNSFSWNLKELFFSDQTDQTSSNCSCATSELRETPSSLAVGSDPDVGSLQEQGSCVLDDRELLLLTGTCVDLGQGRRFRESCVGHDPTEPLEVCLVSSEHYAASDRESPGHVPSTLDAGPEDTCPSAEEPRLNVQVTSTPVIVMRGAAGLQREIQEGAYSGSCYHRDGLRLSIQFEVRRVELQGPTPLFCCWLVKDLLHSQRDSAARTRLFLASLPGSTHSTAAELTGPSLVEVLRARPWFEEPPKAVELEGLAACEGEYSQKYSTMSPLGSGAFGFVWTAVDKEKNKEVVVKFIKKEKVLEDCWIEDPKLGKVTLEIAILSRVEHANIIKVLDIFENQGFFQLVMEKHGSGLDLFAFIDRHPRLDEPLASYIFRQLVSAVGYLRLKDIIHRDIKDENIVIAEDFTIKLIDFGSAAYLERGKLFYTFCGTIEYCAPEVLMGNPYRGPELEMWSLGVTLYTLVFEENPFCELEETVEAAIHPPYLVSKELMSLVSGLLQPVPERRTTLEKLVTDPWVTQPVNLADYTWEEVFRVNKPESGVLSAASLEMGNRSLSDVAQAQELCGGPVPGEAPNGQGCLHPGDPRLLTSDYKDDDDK

## Cc1nn(C(F)F)c(C)c1-c1cnn2ccc(-c3ncc(C(=O)O)s3)cc12 [Cpd 50, 2-[3-[1-(difluoromethyl)-3,5-dimethyl-pyrazol-4-yl]pyrazolo[1,5-a]pyridin-5-yl]thiazole-5-carboxylic acid]
[1]
  IC50: > 5000 nM
Human PASK
  IC50: 0.01 to 10 nM

## Cc1nn(CC(F)(F)F)c(C)c1-c1cnn2ccc(-n3cc(C(=O)O)cn3)cc12 [Cpd 62, 1-[3-[3,5-dimethyl-1-(2,2,2-trifluoroethyl)pyrazol-4-yl]pyrazolo[1,5-a]pyridin-5-yl]pyrazole-4-carboxylic acid]
[1]
  IC50: > 5000 nM
Human PASK
  IC50: 0.01 to 10 nM

## CCOc1nc(-c2ccn3ncc(-c4c(C)nn(CC)c4C)c3c2)sc1C(=O)O [Cpd 64, 4-ethoxy-2-[3-(1-ethyl-3,5-dimethyl-pyrazol-4-yl)pyrazolo[1,5-a]pyridin-5-yl]thiazole-5-carboxylic acid]
[1]
  IC50: 0.1 to 500 nM
Human PASK
  IC50: 0.01 to 10 nM

## CCOc1nc(-c2ccn3ncc(-c4c(C)nn(C(C)C)c4C)c3c2)sc1C(=O)O [Cpd 65, 4-ethoxy-2-[3-(1-isopropyl-3,5-dimethyl-pyrazol-4-yl)pyrazolo[1,5-a]pyridin-5-yl]thiazole-5-carboxylic acid]
[1]
  IC50: 0.1 to 500 nM
Human PASK
  IC50: 0.01 to 10 nM

## COc1nn(-c2ccn3ncc(-c4c(C)nn(C(C)C)c4C)c3c2)cc1C(=O)O [Cpd 66, 1-[3-(1-isopropyl-3,5-dimethyl-pyrazol-4-yl)pyrazolo[1,5-a]pyridin-5-yl]-3-methoxy-pyrazole-4-carboxylic acid]
[1]
  IC50: > 5000 nM
Human PASK
  IC50: 0.01 to 10 nM

## Cc1c(-c2cnn3ccc(-n4cc(C(=O)O)cn4)cc23)c(C(F)(F)F)nn1C [Cpd 67, 1-[3-[1,5-dimethyl-3-(trifluoromethyl)pyrazol-4-yl]pyrazolo[1,5-a]pyridin-5-yl]pyrazole-4-carboxylic acid]
[1]
  IC50: 1000 to 5000 nM
Human PASK
  IC50: 0.01 to 10 nM

## COc1nn(-c2ccn3ncc(-c4c(C)nn(CC(F)(F)F)c4C)c3c2)cc1C(=O)O [Cpd 68, 1-[3-[3,5-dimethyl-1-(2,2,2-trifluoroethyl)pyrazol-4-yl]pyrazolo[1,5-a]pyridin-5-yl]-3-methoxy-pyrazole-4-carboxylic acid]
[1]
  IC50: > 5000 nM
Human PASK
  IC50: 0.01 to 10 nM

## Cc1nn(C(F)F)c(C)c1-c1cnn2ccc(-n3cc(C(=O)O)cn3)cc12 [Cpd 69, 1-[3-[1-(difluoromethyl)-3,5-dimethyl-pyrazol-4-yl]pyrazolo[1,5-a]pyridin-5-yl]pyrazole-4-carboxylic acid]
[1]
  IC50: > 5000 nM
Human PASK
  IC50: 0.01 to 10 nM

## CCOc1nc(-c2ccn3ncc(-c4c(C)nn(CC(F)(F)F)c4C)c3c2)sc1C(=O)O [Cpd 70, 2-[3-[3,5-dimethyl-1-(2,2,2-trifluoroethyl)pyrazol-4-yl]pyrazolo[1,5-a]pyridin-5-yl]-4-ethoxy-thiazole-5-carboxylic acid]
[1]
  IC50: 0.1 to 500 nM
Human PASK
  IC50: 0.01 to 10 nM

## COc1nn(-c2ccn3ncc(-c4c(C)nn(C(F)F)c4C)c3c2)cc1C(=O)O [Cpd 71, 1-[3-[1-(difluoromethyl)-3,5-dimethyl-pyrazol-4-yl]pyrazolo[1,5-a]pyridin-5-yl]-3-methoxy-pyrazole-4-carboxylic acid]
[1]
  IC50: > 5000 nM
Human PASK
  IC50: 0.01 to 10 nM

## CCOc1nc(-c2ccn3ncc(-c4c(C)nn(C(F)F)c4C)c3c2)sc1C(=O)O [Cpd 72, 2-[3-[1-(difluoromethyl)-3,5-dimethyl-pyrazol-4-yl]pyrazolo[1,5-a]pyridin-5-yl]-4-ethoxy-thiazole-5-carboxylic acid]
[1]
  IC50: 1000 to 5000 nM
Human PASK
  IC50: 0.01 to 10 nM

## COc1nc(-c2ccn3ncc(-c4c(C)nn(C(C)C)c4C)c3c2)sc1C(=O)O [Cpd 74, 2-[3-(1-isopropyl-3,5-dimethyl-pyrazol-4-yl)pyrazolo[1,5-a]pyridin-5-yl]-4-methoxy-thiazole-5-carboxylic acid]
[1]
  IC50: > 5000 nM
Human PASK
  IC50: 0.01 to 10 nM

## Cc1c(-c2cnn3ccc(-n4cc(C(=O)O)cn4)cc23)c(C(F)(F)F)nn1C(C)C [Cpd 76, 1-[3-[1-isopropyl-5-methyl-3-(trifluoromethyl)pyrazol-4-yl]pyrazolo[1,5-a]pyridin-5-yl]pyrazole-4-carboxylic acid]
[1]
  IC50: 1000 to 5000 nM
Human PASK
  IC50: 0.01 to 10 nM

## COc1nc(-c2ccn3ncc(-c4c(C)nn(CC(F)(F)F)c4C)c3c2)sc1C(=O)O [Cpd 77, 2-[3-[3,5-dimethyl-1-(2,2,2-trifluoroethyl)pyrazol-4-yl]pyrazolo[1,5-a]pyridin-5-yl]-4-methoxy-thiazole-5-carboxylic acid]
[1]
  IC50: > 5000 nM
Human PASK
  IC50: 0.01 to 10 nM

## COc1nn(-c2ccn3ncc(-c4c(C(F)(F)F)nn(C)c4C)c3c2)cc1C(=O)O [Cpd 78, 1-[3-[1,5-dimethyl-3-(trifluoromethyl)pyrazol-4-yl]pyrazolo[1,5-a]pyridin-5-yl]-3-methoxy-pyrazole-4-carboxylic acid]
[1]
  IC50: 1000 to 5000 nM
Human PASK
  IC50: 0.01 to 10 nM

## COc1nc(-c2ccn3ncc(-c4c(C)nn(C(F)F)c4C)c3c2)sc1C(=O)O [Cpd 79, 2-[3-[1-(difluoromethyl)-3,5-dimethyl-pyrazol-4-yl]pyrazolo[1,5-a]pyridin-5-yl]-4-methoxy-thiazole-5-carboxylic acid]
[1]
  IC50: > 5000 nM
Human PASK
  IC50: 0.01 to 10 nM

## CCn1nc(C)c(-c2cnn3ccc(-n4cc(C(N)=O)c(OC)n4)cc23)c1C [Cpd 82, 1-[3-(1-ethyl-3,5-dimethyl-pyrazol-4-yl)pyrazolo[1,5-a]pyridin-5-yl]-3-methoxy-pyrazole-4-carboxamide]
[1]
  IC50: > 5000 nM
Human PASK
  IC50: 0.01 to 10 nM

## CCn1nc(C)c(-c2cnn3ccc(-c4nc(OC)c(C(=O)O)s4)cc23)c1C [Cpd 84, 2-[3-(1-ethyl-3,5-dimethyl-pyrazol-4-yl)pyrazolo[1,5-a]pyridin-5-yl]-4-methoxy-thiazole-5-carboxylic acid]
[1]
  IC50: 1000 to 5000 nM
Human PASK
  IC50: 0.01 to 10 nM

## COc1nc(-c2ccn3ncc(-c4c(C)nn(C(C)C(F)(F)F)c4C)c3c2)sc1C(=O)O (centres unmarked) [Cpd 85, 2-[3-[3,5-dimethyl-1-(2,2,2-trifluoro-1-methyl-ethyl)pyrazol-4-yl]pyrazolo[1,5-a]pyridin-5-yl]-4-methoxy-thiazole-5-carboxylic acid]
[1]
  IC50: 1000 to 5000 nM
Human PASK
  IC50: 0.01 to 10 nM

## Cc1nn(C)c(C)c1-c1cnn2ccc(-c3nc(C4CC4)c(C(=O)O)s3)cc12 [Cpd 86, 4-cyclopropyl-2-[3-(1,3,5-trimethylpyrazol-4-yl)pyrazolo[1,5-a]pyridin-5-yl]thiazole-5-carboxylic acid]
[1]
  IC50: 0.1 to 500 nM
Human PASK
  IC50: 0.01 to 10 nM

## COc1nc(-c2ccn3ncc(-c4c(C(F)(F)F)nn(C)c4C)c3c2)sc1C(=O)O [Cpd 89, 2-[3-[1,5-dimethyl-3-(trifluoromethyl)pyrazol-4-yl]pyrazolo[1,5-a]pyridin-5-yl]-4-methoxy-thiazole-5-carboxylic acid]
[1]
  IC50: 1000 to 5000 nM
Human PASK
  IC50: 0.01 to 10 nM

## Cc1nn(C)c(C)c1-c1cnn2ccc(-c3nc(OCC(F)(F)F)c(C(=O)O)s3)cc12 [Cpd 90, 4-(2,2,2-trifluoroethoxy)-2-[3-(1,3,5-trimethylpyrazol-4-yl)pyrazolo[1,5-a]pyridin-5-yl]thiazole-5-carboxylic acid]
[1]
  IC50: 500 to 1000 nM
Human PASK
  IC50: 0.01 to 10 nM
